Laboratory results taken from US20250057807A1, “TREATING A DISEASE USING A […] ACTIVE INGREDIENT PRESENT IN A PSEUDO-TERNARY PHASE SYSTEM” (Hepion Pharmaceuticals, Inc., priority 2018, published 2025).
Where “and” joins values, the source holds several entries; their conditions need not be identical. Equal entries are not always repeated. Where a SMILES comes first, the peptide text is derived from it. [ ]: non-standard residue; d: D form. NMeThr(4R-Me,4-(CH2)6NHAc) = CN[C@H](C(=O)O)[C@H](O)[C@H](C)CCCCCCNC(C)=O; NMeL = CN[C@@H](CC(C)C)C(=O)O; NMeV = CN[C@H](C(=O)O)C(C)C; dNMeA = CN[C@H](C)C(=O)O; Abu = CC[C@H](N)C(=O)O

Columns and labels:
physchem = conditions: pH 7.4, aqueous buffer, kinetic from dmso stock
Method: (§1) The supernatant was collected, diluted 1:1 with methanol, and drug concentrations measured by HPLC (Agilent 1100 series, UV detection) relative to standard curves. The polar surface area and log P were calculated using Molinspiration Cheminformatics (V2018.10, USA). Plasma protein binding was determined by equilibrium dialysis assays. Drug plasma samples were prepared to achieve a final concentration of 5 μM in human blood plasma by 500-fold dilution of 2.5 mM DMSO-drug stocks. Plasma solutions (300 μl) and PBS, pH 7.4 (500 μl), were added to adjacent chambers of Rapid Equilibrium Dialysis units (Thermo Scientific; 8K MWCO). Plates were sealed with plastic film and shaken on an orbital shaker at 225 rpm at 37° C. for 4.5 hr. Plasma and PBS samples were collected, and drugs extracted with a zinc sulfate/methanol precipitation method. After centrifugation at 3,300 rpm for 10 min, soluble drugs in methanol supernatants were analyzed by Liquid Chromatography (LC) Electrospray Ionization (ESI) Mass Spectrometry (LC-ESI-MS) (Agilent 1100 series, Santa Clara, USA) and quantified relative to standard curves.

in vitro = conditions: human, pH 7.4
Method: as §1

clinical = test: clinical; parameters: species or system human; conditions: in vivo
Method: The study was conducted at a clinical research facility for investigational medicines (Celerion, Arizona, USA) as part of a clinical Phase 1 single-ascending-dose (SAD) study and followed all FDA ethical guidelines. Patients were selected according to standardized inclusion/exclusion criteria for a Phase I SAD study. Healthy volunteers 18-55 years of age with no evidence of ongoing disease (as determined by the study investigator), or any use of nicotine (30 days prior to screening), or drugs of abuse (within the preceding 2 years), or use of chronic prescription medication (within 30 days), or acute prescription medication (within 14 days), or systemic over-the-counter medications including vitamins and herbal/natural supplements (within 7 days prior to the study dose) were enrolled in the study. The SMEDDS was dispensed (approximately 3 ml) into a 100 ml Gibco clear bottle and a 15-fold excess of filtered water (HPLC grade) was added. The mixture was swirled gently for 1-2 minutes until fully dispersed. The SMEDDS in-water dose was placed in the refrigerator and orally administered within 2 hours. […] Samples were immediately frozen and analyzed by LC-ESI-MS within 5 days. Briefly, whole blood samples were thawed and extracted using a zinc sulfate/methanol precipitation method.

in vivo = test: in vivo; parameters: species or system Sprague Dawley rats; conditions: Sprague Dawley, rat, po, 30 mg/kg/day, liver level relative to whole blood
Method: SERIES 1 1/3/3/2/9 (Vitamin E/Maisine® CC/Propylene Glycol/Ethanol/Cremophor® RH40 (w/w/w/w/w)) CRV431 SMEDDS (50 mg/ml) was administered to Sprague Dawley rats (n=6) by oral gavage at 30 mg/kg/day for 7 days. At 12 hours post-dose on day 7, the animals were sacrificed and whole blood and livers were extracted and frozen. CRV431 was quantitated in whole blood using LC-ESI-MS (as for the human pharmacokinetic studies). For quantitation of CRV431 in liver, one gram samples of liver tissue were added to 9 ml of homogenizing solution (1% formic acid in water) and homogenized using a TissueLyser (Qiagen) at 30 Hz for 10 minutes. Aliquots were removed and analyzed by LC-ESI-MS as described above.

solubility (physchem): 115 µg/mL and 115 µM
fraction unbound at 4.5 hr, 5 μM (in vitro): 0.076
half-life (clinical; human): ~100 h
Cmax (clinical; human, po, 1 mg/kg): 334 ± 106 ng/mL
Cmax relative to Neoral® (clinical; 2.5 mg/kg): slightly greater than Neoral®
overall exposure (AUC) relative to Neoral® (clinical; 2.5 mg/kg): approximately 14 times
Kp (in vivo): 6.5
SMILES: CC[C@@H]1NC(=O)[C@H]([C@H](O)[C@H](C)CCCCCCNC(C)=O)N(C)C(=O)[C@H](C(C)C)N(C)C(=O)[C@H](CC(C)C)N(C)C(=O)[C@H](CC(C)C)N(C)C(=O)[C@@H](C)NC(=O)[C@H](C)NC(=O)[C@H](CC(C)C)N(C)C(=O)[C@H](C(C)C)NC(=O)[C@H](CC(C)C)N(C)C(=O)[C@@H](C)N(C)C1=O [CRV431] (cyclo(A[dA][NMeL][NMeL][NMeV][NMeThr(4R-Me,4-(CH2)6NHAc)][Abu][dNMeA][NMeL]V[NMeL]))
